29 compounds from patent US20040209914A1, “Aromatic sulfone hydroxamic acids and their use as protease inhibitors” (priority 2000, published 2004) can be followed below.

What all share (test): biochemical
One assay addresses T1, Recombinant human MMP-1 (Homo sapiens, UniProt P03956).
T1 construct: made in house; host or cells: transfected HT-1080 cells
T1 sequence (P03956 100-469): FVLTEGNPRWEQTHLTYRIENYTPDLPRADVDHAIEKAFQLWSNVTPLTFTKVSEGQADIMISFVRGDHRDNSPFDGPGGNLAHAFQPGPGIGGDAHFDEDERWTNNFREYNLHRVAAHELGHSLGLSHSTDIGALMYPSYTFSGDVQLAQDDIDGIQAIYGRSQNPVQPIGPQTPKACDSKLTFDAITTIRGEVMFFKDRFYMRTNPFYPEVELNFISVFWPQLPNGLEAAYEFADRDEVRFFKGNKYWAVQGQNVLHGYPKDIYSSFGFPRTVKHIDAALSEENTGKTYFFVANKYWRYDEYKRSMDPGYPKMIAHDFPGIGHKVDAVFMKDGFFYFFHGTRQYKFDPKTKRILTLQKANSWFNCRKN
The conditions noted are these: fluorogenic MCA-peptide substrate, pH 7.5, room temperature. The protocol:
Recombinant human MMP-1, MMP-2, MMP-9, MMP-13, and were used in this assay. These enzymes were prepared in the Assignee's es following usual laboratory procedures. Specifics for preparing and e enzymes can be found in the scientific literature describing these See, e.g., Enzyme Nomenclature (Academic Press, San Diego, Calif., d the citations therein).
The MMP-1 was obtained from MMP-1 expressing transfected HT-1080 cells provided by Dr. Harold Welgus of Washington University in St. Louis, Mo. The MMP-1 was activated using 4-aminophenylmercuric acetate (APMA), and then purified over a hydroxamic acid column.
The enzyme substrate was a methoxycoumarin-containing polypeptide having the following sequence:
MCA-ProLeuGlyLeuDpaAlaArgNH2
Here, “MCA” is methoxycoumarin and “Dpa” is 3-(2,4-dinitrophenyl)-L-2,3-diaminopropionyl alanine.
These solutions were then compared to a control (which contained equal amount of DMSO/buffer solution, but no hydroxamate compound) using Microfluor™ White Plates (Dynatech, Chantilly, Va.). Specifically, The MMPs were activated with APMA or trypsin. […] The control likewise was incubated at room temperature in separate plates with the MMP and 4 uM of the MMP substrate. […] Inhibition was measured as a reduction in fluorescent intensity as a function of inhibitor concentration using a Perkin Elmer (Norwalk, Conn.) L550 plate reader. The IC50's were then calculated from these measurements.

Another assay addresses T2, Recombinant human MMP-2 (Homo sapiens, UniProt P08253).
T2 construct: made in house
T2 sequence (P08253 110-660): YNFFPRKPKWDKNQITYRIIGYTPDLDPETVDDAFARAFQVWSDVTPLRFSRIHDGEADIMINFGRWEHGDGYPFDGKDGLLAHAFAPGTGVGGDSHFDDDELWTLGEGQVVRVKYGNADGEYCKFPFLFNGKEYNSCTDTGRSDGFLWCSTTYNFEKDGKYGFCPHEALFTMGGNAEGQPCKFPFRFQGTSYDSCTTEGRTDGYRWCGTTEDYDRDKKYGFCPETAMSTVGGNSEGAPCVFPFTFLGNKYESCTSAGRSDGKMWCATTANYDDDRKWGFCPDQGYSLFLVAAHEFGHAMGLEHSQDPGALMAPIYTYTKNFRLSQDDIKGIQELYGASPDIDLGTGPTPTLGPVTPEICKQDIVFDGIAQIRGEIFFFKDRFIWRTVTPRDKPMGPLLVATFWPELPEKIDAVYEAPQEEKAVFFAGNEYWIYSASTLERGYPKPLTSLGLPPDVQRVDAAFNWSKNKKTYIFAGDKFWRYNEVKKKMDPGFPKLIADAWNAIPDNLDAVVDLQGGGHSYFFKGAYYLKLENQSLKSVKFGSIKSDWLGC
Particulars: fluorogenic MCA-peptide substrate, pH 7.5, room temperature; read-out: MMP-2 IC50. In outline: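 Activated (APMA or trypsin) recombinant human MMP-2, from transfected expressing cells, incubated at room temperature with 4 uM fluorogenic substrate MCA-Pro-Leu-Gly-Leu-Dpa-Ala-Arg-NH2 and hydroxamate inhibitor.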

Another assay concerns the target T3, Recombinant human MMP-13 (Homo sapiens, UniProt P45452).
T3 construct: made in house; host or cells: baculovirus / insect cells
The conditions noted are these: fluorogenic MCA-peptide substrate, pH 7.5, room temperature; read-out: MMP-13 IC50. Summed up: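 APMA-activated MMP (proenzyme purified on heparin agarose and chelating zinc columns) incubated at room temperature with 4 uM fluorogenic MCA-ProLeuGlyLeuDpaAlaArgNH2 substrate. Inhibition read as reduced fluorescence versus inhibitor concentration relative to a DMSO control, giving IC50.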

Each structure is given as a SMILES string. Bounds are passed on as bounds.

Take `COCCN1CCC(C(=O)NO)(S(=O)(=O)c2ccc(N3CCC(C(=O)c4ccc(CCCC(C)C)cc4)CC3)cc2)CC1` [Example 226]: the figures for the IC50 at Recombinant human MMP-1, at Recombinant human MMP-2 and on Recombinant human MMP-13 were greater than 10000 nM, 1020 nM and less than 0.1 nM, respectively.
As for `C=CCN1CCN(C(=O)C2CCN(c3ccc(S(=O)(=O)C4(C(=O)NO)CCOCC4)cc3)CC2)CC1` [Example 34], the IC50 is greater than 10000 nM at Recombinant human MMP-1, 3700 nM at Recombinant human MMP-2 and 19.3 nM at Recombinant human MMP-13.
Take `O=C(C1CCN(c2ccc(S(=O)(=O)C3(C(=O)NO)CCOCC3)cc2)CC1)N1CCN(c2ccc([N+](=O)[O-])cc2)CC1` [Example 25]: the IC50 at Recombinant human MMP-1 was greater than 10000 nM; on Recombinant human MMP-2, 445 nM; on Recombinant human MMP-13 it was 4 nM.
For `Cc1cc(C(=O)C2CCN(c3ccc(S(=O)(=O)C4(C(=O)NO)CCN(S(C)(=O)=O)CC4)cc3)CC2)ccc1Cl` [Example 219], the figures for the IC50 at Recombinant human MMP-1, at Recombinant human MMP-2 and at Recombinant human MMP-13 were greater than 10000 nM, 258 nM and 4.9 nM, respectively.
In the same order, the values of `O=C(CN1CCN(C(=O)C2CCN(c3ccc(S(=O)(=O)C4(C(=O)NO)CCOCC4)cc3)CC2)CC1)N1CCCC1` [Example 16] are greater than 10000 nM, 4800 nM and 42.5 nM.
`COCCN1CCC(C(=O)NO)(S(=O)(=O)c2ccc(N3CCC(C(=O)c4ccc(OC)cc4)CC3)cc2)CC1` [Example 156]: the half-inhibitory concentration (IC50) at Recombinant human MMP-1 was greater than 10000 nM; at Recombinant human MMP-2, 1340 nM; on Recombinant human MMP-13, 0.7 nM.
For `CCC(CC)Cc1ccc(C(=O)C2CCN(c3ccc(S(=O)(=O)C4(C(=O)NO)CCN(CC)CC4)cc3)CC2)cc1` [Example 234], in that order: greater than 10000 nM, 2440 nM and 7.5 nM.
For `CCC(C)Cc1ccc(C(=O)C2CCN(c3ccc(S(=O)(=O)C4(C(=O)NO)CCN(CCOC)CC4)cc3)CC2)cc1` (stereo not drawn) [Example 205], in that order: greater than 10000 nM, 412 nM and less than 0.1 nM.
For `CCN1CCC(C(=O)NO)(S(=O)(=O)c2ccc(N3CCC(C(=O)c4ccc(CC5CCC5)cc4)CC3)cc2)CC1` [Example 195], the IC50 on Recombinant human MMP-1 is greater than 10000 nM; at Recombinant human MMP-2 it was 463 nM; on Recombinant human MMP-13, 0.3 nM.
Take `Cc1cc(C(=O)C2CCN(c3ccc(S(=O)(=O)C4(C(=O)NO)CCN(C5CC5)CC4)cc3)CC2)ccc1Cl` [Example 214]: the IC50 is greater than 10000 nM on Recombinant human MMP-1, 160 nM at Recombinant human MMP-2 and 1.7 nM on Recombinant human MMP-13.
In the same order, the values of `CCC(C)Cc1ccc(C(=O)C2CCN(c3ccc(S(=O)(=O)C4(C(=O)NO)CCN(CC)CC4)cc3)CC2)cc1` (stereo not drawn) [Example 233] are greater than 10000 nM, 1050 nM and 1.2 nM.
In the same order, the values of `CCc1ccc(C(=O)C2CCN(c3ccc(S(=O)(=O)C4(C(=O)NO)CCN(S(C)(=O)=O)CC4)cc3)CC2)cc1` [Example 220] are greater than 10000 nM, 290 nM and 1.7 nM.
For `COCCN1CCC(C(=O)NO)(S(=O)(=O)c2ccc(N3CCC(C(=O)c4ccc(CN(C)C)s4)CC3)cc2)CC1` [Example 223], in that order: greater than 10000 nM, 80.4 nM and 2.5 nM.
Take `CCN1CCC(C(=O)NO)(S(=O)(=O)c2ccc(N3CCC(C(=O)c4ccc(CCC(C)O)cc4)CC3)cc2)CC1` (stereo not drawn) [Example 248]: the concentration for half-maximal inhibition (IC50) on Recombinant human MMP-1 is greater than 10000 nM; on Recombinant human MMP-2 it was 141 nM; on Recombinant human MMP-13, 0.6 nM.
As to `CC(C)Cc1ccc(C(=O)C2CCN(c3ccc(S(=O)(=O)C4(C(=O)NO)CCN(C5CC5)CC4)cc3)CC2)cc1` [Example 189], the 50% inhibitory concentration (IC50) is greater than 10000 nM on Recombinant human MMP-1, 258 nM at Recombinant human MMP-2 and less than 0.1 nM on Recombinant human MMP-13.
With `Cc1ccc(C(=O)C2CCN(c3ccc(S(=O)(=O)C4(C(=O)NO)CCN(S(C)(=O)=O)CC4)cc3)CC2)cc1` [Example 207], the IC50 is greater than 10000 nM on Recombinant human MMP-1, 4.4 nM on Recombinant human MMP-2 and 1.1 nM at Recombinant human MMP-13.
As to `O=C(c1ccc(CCC2CCCC2)cc1)C1CCN(c2ccc(S(=O)(=O)C3(C(=O)NO)CCOCC3)cc2)CC1` [Example 381], the IC50 was greater than 10000 nM at Recombinant human MMP-1, 640 nM on Recombinant human MMP-2 and 3.5 nM at Recombinant human MMP-13.
In the same order, the values of `O=C(c1ccc(CC2CCCC2)cc1)C1CCN(c2ccc(S(=O)(=O)C3(C(=O)NO)CCOCC3)cc2)CC1` [Example 379] are greater than 10000 nM, 1270 nM and 0.6 nM.
For `COCCN1CCC(C(=O)NO)(S(=O)(=O)c2ccc(N3CCC(C(=O)c4ccc(CC(C)C)cc4)CC3)cc2)CC1` [Example 218], in that order: greater than 10000 nM, 75.7 nM and 0.2 nM.
As to `COc1ccc(C(=O)C2CCN(c3ccc(S(=O)(=O)C4(C(=O)NO)CCOCC4)cc3)CC2)cc1C` [Example 305], the concentration for half-maximal inhibition (IC50) on Recombinant human MMP-1 was greater than 10000 nM; on Recombinant human MMP-2, 3300 nM; at Recombinant human MMP-13 it was 6 nM.
Consider `CCC(C)Cc1ccc(C(=O)C2CCN(c3ccc(S(=O)(=O)C4(C(=O)NO)CCN(C5CC5)CC4)cc3)CC2)cc1` (stereo not drawn) [Example 200], for which the 50% inhibitory concentration (IC50) at Recombinant human MMP-1 is greater than 10000 nM; on Recombinant human MMP-2, 1400 nM; on Recombinant human MMP-13, 0.5 nM.
Turning to `O=C(c1ccc(F)c(F)c1)C1CCN(c2ccc(S(=O)(=O)C3(C(=O)NO)CCOCC3)cc2)CC1` [Example 302], the values for the IC50 at Recombinant human MMP-1, at Recombinant human MMP-2 and at Recombinant human MMP-13 were greater than 10000 nM, 35 nM and 1.9 nM, respectively.
For `CCN1CCC(C(=O)NO)(S(=O)(=O)c2ccc(N3CCC(C(=O)c4ccc(CC5CC5)cc4)CC3)cc2)CC1` [Example 254], in that order: greater than 10000 nM, 132 nM and 1.3 nM.
For `C#CCN1CCC(C(=O)NO)(S(=O)(=O)c2ccc(N3CCC(C(=O)c4ccc(N(C)CC)cc4)CC3)cc2)CC1` [Example 174], in that order: greater than 10000 nM, 1070 nM and 1.1 nM.
For `CC(C)COc1ccc(C(=O)C2CCN(c3ccc(S(=O)(=O)C4(C(=O)NO)CCN(C5CC5)CC4)cc3)CC2)cc1` [Example 216], in that order: greater than 10000 nM, 46.4 nM and 1.5 nM.
`CCC(CC)Cc1ccc(C(=O)C2CCN(c3ccc(S(=O)(=O)C4(C(=O)NO)CCN(CCOC)CC4)cc3)CC2)cc1` [Example 230]: the half-inhibitory concentration (IC50) on Recombinant human MMP-1 was greater than 10000 nM; on Recombinant human MMP-2, 745 nM; on Recombinant human MMP-13, 0.1 nM.
For `COCCN1CCC(C(=O)NO)(S(=O)(=O)c2ccc(N3CCC(C(=O)c4ccc(Cl)c(C)c4)CC3)cc2)CC1` [Example 211], in that order: greater than 10000 nM, 122 nM and 1.2 nM.
For `C=CCN1CCC(C(=O)NO)(S(=O)(=O)c2ccc(N3CCC(C(=O)c4ccc(OC)cc4)CC3)cc2)CC1` [Example 182], in that order: greater than 10000 nM, 115 nM and 1.1 nM.
In the same order, the values of `CCCc1ccc(C(=O)C2CCN(c3ccc(S(=O)(=O)C4(C(=O)NO)CCN(CCOC)CC4)cc3)CC2)cc1` [Example 120] are greater than 10000 nM, 126 nM and 0.85 nM.
